Residues, ends and D or L forms follow the SMILES beside them.
Assay: Identification of absorbed peptides in plasma (PDA-HPLC, LC-MS/MS)
Format: in vivo
Details: pigs fed Peptide Composition 1 (Example 1), blood collected during dissection; 3 peptide peaks present
Protocol: First, between 3 and 5 day-old 18 pigs were divided into 3 groups and they were bred for 3 days. Then the groups were designated as test groups (Example 1 and Comparative Example 1) and a control group (Comparative Example 2) and 1.25 g of dextran sulfate per kg of body weight was given as drinking water for 5 days (DSS treatment). Then, 250 mg of Peptide Composition 1 per kg of body weight was fed for 5 days in Example 1, 250 mg of Peptide Composition 2 per kg of body weight was fed for 5 days in Comparative Example 1, and alanine corresponding to the nitrogen content of the peptide was fed in Comparative Example 2. After that, the intestinal tract cells were collected during dissection and cytokines were measured. Comparative Example 2 corresponds to the control. (Dextran sulfate is a substance which induces bowel inflammation. International J. of Colorectal Disease, 15, 144-160 (2000))
Blood was collected during dissection and plasma was isolated, and then the structural analysis of a peak obtained by PDA-HPLC was carried out by LC-MS/MS to identify an amino acid sequence of the peptides.

peptide peak present in plasma: largest peak
Structure (SMILES): CC(C)C[C@H](NC(=O)[C@@H](N)Cc1ccccc1)C(=O)N[C@H](C(=O)O)C(C)C [FLV, Phe-Leu-Val] (H-Phe-Leu-Val-OH; N-terminus and C-terminus assumed)
